Patent US8530381B2, “Active compound combinations” (Bayer CropScience AG, priority 2009, dated 2013)

Legend:
[1] = tested on: Pyrenophora teres; assay: Pyrenophora teres-test (barley)/preventive; type: in vivo; conditions: preventive spray, evaluated 8 days after inoculation
Procedure: (§1) Here, the efficacy is determined in %. 0% means an efficacy which corresponds to that of the control, whereas an efficacy of 100% means that no infection is observed.
(§2) If the actual fungicidal action exceeds the calculated value, the action of the combination is superadditive, i.e. a synergistic effect is present. In this case, the actually observed efficacy must exceed the value calculated using the above formula for the expected efficacy (E).
Pyrenophora teres-Test (Barley)/Preventive
(§3) Solvent: 49 parts by weight of n,n-dimethylacetamid
(§4) Emulsifier: 1 part by weight of alkylaryl polyglycol ether
(§5) To produce a suitable preparation of active compound, 1 part by weight of active compound or active compound combination is mixed with the stated amounts of solvent and emulsifier, and the concentrate is diluted with water to the desired concentration.
(§6) To test for preventive activity, young plants are sprayed with the preparation of active compound or active compound combination at the stated rate of application.
After the spray coating has been dried, the plants are sprayed with a spore suspension of Pyrenophora teres. The plants remain for 48 hours in an incubation cabinet at approximately 20° C. and a relative atmospheric humidity of approximately 100%. […]
The test is evaluated 8 days after the inoculation. […]

[2] = tested on: Blumeria graminis f.sp. hordei; assay: Blumeria-test (barley)/preventive; type: in vivo; conditions: preventive spray, application rate 62,5 g/ha, evaluated 7 days after inoculation
Procedure: as §1, §2
Blumeria Test (Barley)/Preventive
as §3, §4, §5, §6
After the spray coating has been dried, the plants are dusted with spores of Blumeria graminis f.sp. hordei.
The plants are placed in the greenhouse at a temperature of approximately 18° C. and a relative atmospheric humidity of approximately 80% to promote the development of mildew pustules.
The test is evaluated 7 days after the inoculation. 0% means an efficacy which corresponds to that of the control, while an efficacy of 100% means that no disease is observed.

| Structure (SMILES) | Efficacy in % found ([1]; application rate 62,5 g/ha) | Efficacy in % found [2] | Efficacy in % found ([1]; application rate 125 g/ha) |
| --- | --- | --- | --- |
| CCN(C)/C=N/c1cc(C)c(Oc2nc(Cc3ccc(Cl)cc3)ns2)cc1C [I-a] | 40% | 40% | – |
| CO/N=C(/C(=O)OC)c1ccccc1CO/N=C(\C)c1cccc(C(F)(F)F)c1 [3.17, trifloxystrobin] | – | 80% | – |
| Cn1cc(C(=O)Nc2ccc(F)cc2-c2ccc(Cl)c(Cl)c2)c(C(F)F)n1 [2.2, bixafen] | – | 10% | – |
| OC(Cc1ccccc1Cl)(Cn1nc[nH]c1=S)C1(Cl)CC1 (centres unmarked) [1.41, prothioconazole] | – | – | 70% |
